Test results reported in paper PMC6208284 (Phytotherapy Research, 2018).

Tests used:
[1] = test system: Leishmania tarentolae promastigotes (LtP); assay: Superoxide radical detection in LtP by CMH/ESR; format: cell-based; settings: for CM● formation (superoxide radicals) in LtP: 100 μM compound, immediate, with DFO and DTPA
Description: Detection of superoxide radicals was performed using CMH as reaction partner and measuring the formed stable nitroxyl radicals by electron spin resonance (ESR) spectroscopy. Measurements were performed in PBS (136 mM NaCl, 1.15 mM KH2PO4, 14 mM Na2HPO4, and 2.7 mM KCl, pH 7.4) containing 15 mM glucose, 400 μM CMH, and 100 μM DFO (desferrioxamine mesylate) and 25 μM DTPA. Usually, these assays are performed in the presence of iron chelators (DFO and DTPA) to prevent CMH interaction with free Fe^3+ leading to CM^● unrelated to superoxide radicals. Before the measurements, LtP suspensions were washed twice with PBS to remove the medium. Typical experiments contained 5 × 10^8 LtP cells/ml. Stock solutions of EO compounds dissolved in DMSO were added. The influence of Asc (6–700 μM) on the CMH oxidation rate by LtP was assessed immediately and after prolonged incubation time (1 hr between Asc and CMH addition). The influence of iron‐dependent Asc activation in LtP on CMH oxidation was studied in the absence of iron chelators DFO and DTPA. Prior to the ESR measurement, 400 μM CMH was added. Afterwards, 17 μl of suspension was aspirated in gas‐permeable Teflon tubes (ID 0.7 mm). This capillary tube was placed in the resonator of the ESR instrument (Bruker EMX, split ring MD5, Germany), and 10 sequential measurements were performed. The following instrument settings were used: microwave frequency 9.682 GHz, modulation frequency 100 kHz, modulation amplitude 1 G, time constant 0.082 s, center field 3,446 G, scan rate 71 G/min, sweep width 100 G, scan time 84 s, and attenuation CMH: 7.96 × 10^3. From the ESR spectra, the middle peak intensity was retrieved, and concentrations of oxidized CMH were obtained by comparison with a standard curve prepared from 3‐carboxy‐proxyl solutions with defined concentrations. Four replicate measurements were performed for each condition.

[2] = test system: Leishmania tarentolae promastigotes (LtP); assay: Mitochondrial coupling (RCR) in LtP, Clark-type electrode, short- and long-term incubation; format: cell-based; settings: 200 μM
Description: Direct inhibitors of mitochondrial ETC instantaneously influence mitochondrial oxygen consumption. To assay the effect of EO compounds on oxygen consumption of LtP, a Clark‐type oxygen electrode (Hansatech, Germany) and software MCREC were used. LtP at approximately 10^8 cells/ml in YEM (25 °C) were added and treated with increasing concentrations of EO compounds between 10 and 200 μM and for EO 5.6–89.6 μg/ml. Each concentration was assayed in quadruplicates, and the results were expressed as percentage of oxygen consumption in comparison with the untreated control LtP. The highest concentration of the vehicle (1% DMSO) caused only 2% inhibition. The uncoupling effect in short‐term and long‐term (0, 6, and 24 hr) incubations with Asc (200 μM) was studied in Oligo‐inhibited (5 μM) and uncoupler‐stimulated (0.5 μM CCCP) LtP in Schneider's medium supplemented with 6 μM hemin. Four replicates were performed for each concentration.

[3] = test system: Leishmania amazonensis promastigotes (LaP); set-up: method as in Monzote, Garcia, et al., 2014; settings: after 72 hr of incubation; ref Monzote, Garcia, et al., 2014; cited from earlier work
[4] = set-up: method as in Rappoport & Frankel, 1967; settings: ref Rappoport & Frankel, 1967; cited from earlier work
[5] = test system: Leishmania tarentolae promastigotes (LtP); assay: Low molecular thiols in LtP, CMFDA method; format: cell-based; settings: 5 hr incubation at 26 °C, PBS/glucose
Description: LtP were centrifuged twice (1,800 g, 10 min, 20 °C), the cell pellets were resuspended in PBS/glucose (15 mM), and the cell number was adjusted to 1 × 10^7/ml. Aliquots (250 μl) were added to 96‐well plates (black, nontreated plates), along with compound stocks (keeping a maximum of 2% DMSO). Following a 5‐hr incubation at 26 °C, plates were centrifuged (1,800 g, 10 min, 20 °C), and 200 μl of supernatant was removed. To the remaining cell suspension, 100 μl of CMFDA in PBS was added giving a final concentration of 5 μM. After gentle shaking, the cells were incubated for 15 min at 37 °C in the dark. The fluorescence of the methyl fluorescein (MF)‐thiol adduct (Sarkar, Mandal, Singh, Sundar, & Chatterjee, 2009) was measured at 15, 30, 45, and 60 min at 485 nm (excitation wavelength) and 530 nm (emission wavelength) using a plate reader (PerkinElmer Enspire, Germany). The OD600 nm was determined for cell count, and the measured fluorescence intensity was normalized to the cell number. Three replicate measurements were performed for each condition.

Row | Compound | CM● formation (superoxide radicals) in LtP [1] | CMH oxidation (superoxide radical formation) triggered in LtP ([1]; Asc 6–700 μM, 0 hr vs 1 hr incubation, with/without iron chelators) | Effect on mitochondrial coupling in LtP ([2]; immediately after addition) | RCR with respect to vehicle‐treated LtP ([2]; prolonged incubation (6 and 24 hr)) | Membrane potential of LaP (JC‐1) [3] | pKa value [4] | Low molecular thiol status (rate of thiol‐MF adduct formation) [5]
1 | CC(C)C12C=CC(C)(CC1)OO2 (centres unmarked) [Asc, ascaridole] | only slightly increased | increasingly effective upon prolonged incubation and in the absence of iron chelators | only little effects | declined | decrease |  | 
2 | Cc1ccc(C(C)C)cc1O [Car, carvacrol] |  |  |  |  |  | around 10 | 
3 | C=C1CC[C@H]2O[C@]2(C)CC[C@@H]2[C@@H]1CC2(C)C [Caryo, caryophyllene oxide] | only slightly increased |  |  |  |  |  | decrease
